We go through 20 compounds from ChEMBL document CHEMBL1201862, “PubChem BioAssay data set” (2004).

The source made the active and inactive calls.

Assay [1] concerns the target T1, Fatty acid synthase (Homo sapiens, UniProt P49327). Description: FAS thioesterase domain inhibitors, dose response, biochemical, kinetic fluorescence intensity (AID 624326).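 Note: rate of fluorescence rise from hydrolysis of a fluorogenic O-methyl fluorescein ester substrate.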 The format is functional.
Assay [2] addresses T1, Fatty acid synthase. The assay can be described thus: FAS thioesterase domain inhibitors, dose response, biochemical, endpoint fluorescence intensity, uHTS hits (AID 624327).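 Note: fluorescence from hydrolysis of an O-methyl fluorescein acyl ester substrate by the enzyme.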 Type of assay: functional.
The target of assay [3] is T2, Polyadenylate-binding protein 1 (Homo sapiens, UniProt P11940). Description: PABP1 MLLE–PAM2 interaction inhibitors, dose response, miRNA deadenylation inhibitor project, biochemical, fluorescence polarization, Cy5-PAM2 peptide, secondary (AID 602260). Type of assay: functional. The conditions noted are these: read-out: IC50_Mean. (In general: In fluorescence polarisation assays a small probe gives low polarisation when free and higher when bound to something large.)
T2 sequence (P11940 whole entry): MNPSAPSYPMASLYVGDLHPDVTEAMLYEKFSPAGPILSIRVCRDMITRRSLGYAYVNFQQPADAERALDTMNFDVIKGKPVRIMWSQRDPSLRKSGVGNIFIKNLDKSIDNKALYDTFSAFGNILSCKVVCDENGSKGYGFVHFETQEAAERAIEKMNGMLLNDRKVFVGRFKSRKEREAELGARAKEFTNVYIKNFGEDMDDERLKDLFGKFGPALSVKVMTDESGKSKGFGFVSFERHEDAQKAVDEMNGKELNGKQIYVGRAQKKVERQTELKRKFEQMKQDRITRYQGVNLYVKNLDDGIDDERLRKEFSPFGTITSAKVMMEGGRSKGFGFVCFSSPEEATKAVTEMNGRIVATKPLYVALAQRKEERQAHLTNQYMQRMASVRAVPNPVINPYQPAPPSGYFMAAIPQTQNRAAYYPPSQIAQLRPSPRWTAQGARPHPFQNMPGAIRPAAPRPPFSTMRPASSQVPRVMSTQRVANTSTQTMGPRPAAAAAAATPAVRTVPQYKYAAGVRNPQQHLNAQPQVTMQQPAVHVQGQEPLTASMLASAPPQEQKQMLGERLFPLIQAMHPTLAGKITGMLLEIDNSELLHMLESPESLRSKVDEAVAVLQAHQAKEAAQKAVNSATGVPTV

Assay [4] has as its target T2, Polyadenylate-binding protein 1. Description: PABP1 MLLE–PAM2 binding inhibitor potency, dose response, biochemical, fluorescence polarization, FITC-PAM2 peptide (AID 602259). The format is functional. As to conditions: read-out: IC50_Mean.
Assay [5] can be described thus: inhibitors of SNCA 5'UTR-driven reporter translation, confirmation, H4 neuroglioma cells, luminescence (AID 1988). The format is functional, cell-based.
Assay [6] in a line: Luminescence Cell-Based Dose Response HTS to Identify Inhibitors of 5'UTR Stem-Loop Driven Prion Protein mRNA Translation in H4 Neuroglioblastoma Cells. [Related pubchem assays: 1827 (Project Summary), 1813 (Primary HTS)]. The format is functional.
Assay [7] in a line: A549 cell cytotoxicity, dose response, cytotoxicity control, plate reader, cherry-pick, antagonist series (AID 743412). Type of assay: functional, cell-based.
A short description of assay [8]: LGR2 antagonists, dose response, cell-based, HEK293, CRE-luciferase reporter, cherry pick, set 2 (AID 743343).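 Note: transfected cells were stimulated with diluted bursicon conditioned medium after compound addition.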 Type of assay: functional. (In general: Reporter assays use an easily measured gene product as a stand-in for the process of interest.)
The target in assay [9] is T3, Microphthalmia-associated transcription factor (Homo sapiens, UniProt O75030).
T3 sequence (O75030 whole entry): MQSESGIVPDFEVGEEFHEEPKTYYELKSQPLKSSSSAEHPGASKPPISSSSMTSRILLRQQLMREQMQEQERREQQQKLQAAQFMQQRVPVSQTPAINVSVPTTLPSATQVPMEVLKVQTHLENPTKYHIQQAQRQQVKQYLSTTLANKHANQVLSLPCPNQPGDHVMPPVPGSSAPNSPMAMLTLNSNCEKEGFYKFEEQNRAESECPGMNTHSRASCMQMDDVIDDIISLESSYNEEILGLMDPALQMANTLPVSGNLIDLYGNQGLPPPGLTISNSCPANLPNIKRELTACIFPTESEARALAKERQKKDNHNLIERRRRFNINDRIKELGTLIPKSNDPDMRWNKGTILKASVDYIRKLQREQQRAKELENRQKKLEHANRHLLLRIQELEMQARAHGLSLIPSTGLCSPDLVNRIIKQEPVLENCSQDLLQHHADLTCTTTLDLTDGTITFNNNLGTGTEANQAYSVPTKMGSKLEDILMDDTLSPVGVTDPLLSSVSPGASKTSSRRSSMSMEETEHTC
Description: TRPM1 promoter luciferase signal decrease, dose response, MITF inhibitor project, cell-based, SK-MEL-5, cherry-picked, set 3 (AID 493073).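 Note: SK-MEL-5 melanoma cells with luciferase driven by the MITF target TRPM1 promoter.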 Type of assay: functional.

The nature of assay [10]: MC4R antagonists, dose response, counter-screen for LGR2 antagonist project, cell-based, plate reader, cherry pick (AID 743444).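 Note: transfected HEK 293 cells stimulated with alpha-MSH peptide; potency of inhibitors of the alpha-MSH evoked signal.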 Type of assay: functional.
Assay [11] has as its target T4, Histone-lysine N-methyltransferase NSD2 (Homo sapiens, UniProt O96028).
T4 sequence (O96028 whole entry): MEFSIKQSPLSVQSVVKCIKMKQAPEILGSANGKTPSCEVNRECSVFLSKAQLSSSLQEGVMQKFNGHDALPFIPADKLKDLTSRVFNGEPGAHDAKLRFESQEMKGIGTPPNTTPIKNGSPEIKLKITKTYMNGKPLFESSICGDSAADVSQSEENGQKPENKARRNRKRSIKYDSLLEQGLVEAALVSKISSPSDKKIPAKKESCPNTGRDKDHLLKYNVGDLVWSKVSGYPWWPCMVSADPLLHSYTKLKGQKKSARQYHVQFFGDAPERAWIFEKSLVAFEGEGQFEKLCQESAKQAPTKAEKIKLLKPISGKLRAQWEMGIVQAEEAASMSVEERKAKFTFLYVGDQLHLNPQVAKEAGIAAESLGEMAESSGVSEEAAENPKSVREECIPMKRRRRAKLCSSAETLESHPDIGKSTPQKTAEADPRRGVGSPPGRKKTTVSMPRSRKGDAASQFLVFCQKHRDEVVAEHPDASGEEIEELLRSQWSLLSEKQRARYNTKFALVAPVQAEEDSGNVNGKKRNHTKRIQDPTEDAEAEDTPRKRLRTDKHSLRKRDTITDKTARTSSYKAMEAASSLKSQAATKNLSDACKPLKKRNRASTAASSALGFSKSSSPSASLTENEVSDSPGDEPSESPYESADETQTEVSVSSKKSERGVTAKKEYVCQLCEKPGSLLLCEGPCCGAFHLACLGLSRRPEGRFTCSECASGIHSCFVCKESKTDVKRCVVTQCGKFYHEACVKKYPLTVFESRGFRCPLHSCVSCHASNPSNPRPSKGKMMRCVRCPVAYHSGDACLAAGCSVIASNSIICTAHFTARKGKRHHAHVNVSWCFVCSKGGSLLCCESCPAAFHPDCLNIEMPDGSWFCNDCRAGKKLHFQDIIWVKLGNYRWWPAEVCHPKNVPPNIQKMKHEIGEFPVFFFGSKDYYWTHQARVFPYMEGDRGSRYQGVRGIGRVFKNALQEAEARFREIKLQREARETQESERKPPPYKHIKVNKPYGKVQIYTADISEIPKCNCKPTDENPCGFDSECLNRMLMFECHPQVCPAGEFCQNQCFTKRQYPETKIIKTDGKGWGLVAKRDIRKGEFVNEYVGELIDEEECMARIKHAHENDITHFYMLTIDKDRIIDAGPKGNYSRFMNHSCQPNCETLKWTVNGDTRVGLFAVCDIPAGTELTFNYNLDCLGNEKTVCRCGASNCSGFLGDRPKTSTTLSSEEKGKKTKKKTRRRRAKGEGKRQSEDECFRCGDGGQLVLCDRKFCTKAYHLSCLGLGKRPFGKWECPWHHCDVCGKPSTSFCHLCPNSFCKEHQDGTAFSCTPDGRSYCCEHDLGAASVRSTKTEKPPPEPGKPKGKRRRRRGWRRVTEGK
The format is biochemical.

Assay [12] in a line: HepG2 cell cytotoxicity, dose response, cytotoxicity control, plate reader, cherry-pick, antagonist series (AID 743416). Type of assay: functional, cell-based.
Assay [13] can be described thus: HEK293 cell cytotoxicity, dose response, cytotoxicity control, plate reader, cherry-picked samples (AID 743446). The format is functional, cell-based.
Assay [14] can be described thus: cytotoxicity in HPDE-C7 cells, cell-based, fluorescence, HTS (AID 430). The conditions noted are these: Homo sapiens. The format is functional.
Assay [15] is described as follows: cytotoxicity in KRAS-transformed pancreatic duct cells, primary screen, cell-based, fluorescence, HTS (AID 431).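 Note: cell line used: HPDE-C7K.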 Type of assay: functional. As to conditions: Homo sapiens.
Assay [16] in a line: HEp-2 cell cytotoxicity, dose response, cytotoxicity control for RSV inhibitor project, HTS (AID 2410). The format is functional. The conditions noted are these: human respiratory syncytial virus.
The nature of assay [17]: inhibitors of intracellular T. cruzi replication, confirmation, NIH3T3 host cells, beta-gal luminescence (AID 2044).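 Note: intracellular parasites grown in NIH/3T3 mouse fibroblasts as host cells; luminescent beta-galactosidase reporter signal from transgenic T. cruzi replicating inside host cells; inhibitors lower the luminescence signal.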 Type of assay: functional, cell-based.
Assay [18] is described as follows: cytotoxicity toward NIH3T3 fibroblasts, dose response, counter-screen, cell-based, ATP luminescence, mouse fibroblasts (AID 2010).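 Note: cells exposed to compound for about 90 hours before reading.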 The format is functional. A general note: The purpose of a counterscreen is to sort out artefacts and off-target activity.
In assay [19] the target is T5, Heat shock factor protein 1 (Mus musculus, UniProt P38532).
T5 sequence (P38532 whole entry): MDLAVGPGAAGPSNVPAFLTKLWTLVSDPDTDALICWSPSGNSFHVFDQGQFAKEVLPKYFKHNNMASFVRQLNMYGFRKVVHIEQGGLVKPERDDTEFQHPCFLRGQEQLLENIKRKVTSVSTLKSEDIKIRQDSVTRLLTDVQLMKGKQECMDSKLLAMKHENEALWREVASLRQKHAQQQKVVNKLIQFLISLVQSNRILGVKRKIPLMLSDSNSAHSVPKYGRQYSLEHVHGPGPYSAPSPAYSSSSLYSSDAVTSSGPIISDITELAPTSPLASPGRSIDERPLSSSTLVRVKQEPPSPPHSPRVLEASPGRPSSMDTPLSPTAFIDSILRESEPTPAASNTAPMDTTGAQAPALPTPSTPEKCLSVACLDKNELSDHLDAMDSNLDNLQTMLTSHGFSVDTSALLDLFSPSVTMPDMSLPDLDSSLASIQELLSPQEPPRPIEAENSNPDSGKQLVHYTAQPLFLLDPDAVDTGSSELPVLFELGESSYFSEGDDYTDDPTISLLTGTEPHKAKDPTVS
Description: HSF1 potentiators in luciferase reporter cells, confirmation, cell-based, NIH3T3, luminescence, dose retest (AID 435004).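 Note: stress induced by proteasome inhibitor MG132 added 30 min after compound; luciferase reporter driven by HSF1 response element in NIH3T3 cells; actives raise luminescence as potentiators of the MG132 stress response.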 Type of assay: functional.

Assay [20] can be described thus: inhibitors of firefly luciferase expression or activity, dose response, H4 neuroglioma cells, luminescence (AID 1990). The format is functional, cell-based.
The target in assay [21] is Mitogen-activated protein kinase 10 (Homo sapiens, UniProt P53779). Description: Dose response biochemical screening assay for inhibitors of c-Jun N-Terminal Kinase 3 (JNK3). [Related pubchem assays: 746 ].
Sequence of Mitogen-activated protein kinase 10 (P53779 whole entry): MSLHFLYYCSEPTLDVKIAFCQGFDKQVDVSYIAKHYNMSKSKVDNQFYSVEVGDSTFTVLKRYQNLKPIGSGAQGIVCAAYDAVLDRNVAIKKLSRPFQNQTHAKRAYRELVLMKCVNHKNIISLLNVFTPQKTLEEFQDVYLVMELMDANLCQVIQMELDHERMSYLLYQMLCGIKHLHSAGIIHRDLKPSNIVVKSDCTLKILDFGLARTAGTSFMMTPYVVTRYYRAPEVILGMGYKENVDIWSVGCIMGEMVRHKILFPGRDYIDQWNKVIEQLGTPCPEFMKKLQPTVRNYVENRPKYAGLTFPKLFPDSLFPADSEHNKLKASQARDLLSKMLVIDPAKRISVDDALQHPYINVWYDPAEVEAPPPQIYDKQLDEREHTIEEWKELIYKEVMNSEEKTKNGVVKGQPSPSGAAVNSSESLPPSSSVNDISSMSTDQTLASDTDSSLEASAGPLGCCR
Assay [22] in a line: Luminescence Cell-Based Dose Confirmation HTS to Identify Inhibitors of Platelet Dense Granule Release. [Related pubchem assays: 1663 (Primary HTS), 1678 (Summary of Project)]. The format is functional.
Assay [23] concerns the target Luciferin 4-monooxygenase (Photinus pyralis, UniProt P08659). Description: firefly luciferase enzyme inhibitors, dose response, biochemical, luminescence (AID 1891).

T1 sequence (P49327 whole entry, the tested form may be a part): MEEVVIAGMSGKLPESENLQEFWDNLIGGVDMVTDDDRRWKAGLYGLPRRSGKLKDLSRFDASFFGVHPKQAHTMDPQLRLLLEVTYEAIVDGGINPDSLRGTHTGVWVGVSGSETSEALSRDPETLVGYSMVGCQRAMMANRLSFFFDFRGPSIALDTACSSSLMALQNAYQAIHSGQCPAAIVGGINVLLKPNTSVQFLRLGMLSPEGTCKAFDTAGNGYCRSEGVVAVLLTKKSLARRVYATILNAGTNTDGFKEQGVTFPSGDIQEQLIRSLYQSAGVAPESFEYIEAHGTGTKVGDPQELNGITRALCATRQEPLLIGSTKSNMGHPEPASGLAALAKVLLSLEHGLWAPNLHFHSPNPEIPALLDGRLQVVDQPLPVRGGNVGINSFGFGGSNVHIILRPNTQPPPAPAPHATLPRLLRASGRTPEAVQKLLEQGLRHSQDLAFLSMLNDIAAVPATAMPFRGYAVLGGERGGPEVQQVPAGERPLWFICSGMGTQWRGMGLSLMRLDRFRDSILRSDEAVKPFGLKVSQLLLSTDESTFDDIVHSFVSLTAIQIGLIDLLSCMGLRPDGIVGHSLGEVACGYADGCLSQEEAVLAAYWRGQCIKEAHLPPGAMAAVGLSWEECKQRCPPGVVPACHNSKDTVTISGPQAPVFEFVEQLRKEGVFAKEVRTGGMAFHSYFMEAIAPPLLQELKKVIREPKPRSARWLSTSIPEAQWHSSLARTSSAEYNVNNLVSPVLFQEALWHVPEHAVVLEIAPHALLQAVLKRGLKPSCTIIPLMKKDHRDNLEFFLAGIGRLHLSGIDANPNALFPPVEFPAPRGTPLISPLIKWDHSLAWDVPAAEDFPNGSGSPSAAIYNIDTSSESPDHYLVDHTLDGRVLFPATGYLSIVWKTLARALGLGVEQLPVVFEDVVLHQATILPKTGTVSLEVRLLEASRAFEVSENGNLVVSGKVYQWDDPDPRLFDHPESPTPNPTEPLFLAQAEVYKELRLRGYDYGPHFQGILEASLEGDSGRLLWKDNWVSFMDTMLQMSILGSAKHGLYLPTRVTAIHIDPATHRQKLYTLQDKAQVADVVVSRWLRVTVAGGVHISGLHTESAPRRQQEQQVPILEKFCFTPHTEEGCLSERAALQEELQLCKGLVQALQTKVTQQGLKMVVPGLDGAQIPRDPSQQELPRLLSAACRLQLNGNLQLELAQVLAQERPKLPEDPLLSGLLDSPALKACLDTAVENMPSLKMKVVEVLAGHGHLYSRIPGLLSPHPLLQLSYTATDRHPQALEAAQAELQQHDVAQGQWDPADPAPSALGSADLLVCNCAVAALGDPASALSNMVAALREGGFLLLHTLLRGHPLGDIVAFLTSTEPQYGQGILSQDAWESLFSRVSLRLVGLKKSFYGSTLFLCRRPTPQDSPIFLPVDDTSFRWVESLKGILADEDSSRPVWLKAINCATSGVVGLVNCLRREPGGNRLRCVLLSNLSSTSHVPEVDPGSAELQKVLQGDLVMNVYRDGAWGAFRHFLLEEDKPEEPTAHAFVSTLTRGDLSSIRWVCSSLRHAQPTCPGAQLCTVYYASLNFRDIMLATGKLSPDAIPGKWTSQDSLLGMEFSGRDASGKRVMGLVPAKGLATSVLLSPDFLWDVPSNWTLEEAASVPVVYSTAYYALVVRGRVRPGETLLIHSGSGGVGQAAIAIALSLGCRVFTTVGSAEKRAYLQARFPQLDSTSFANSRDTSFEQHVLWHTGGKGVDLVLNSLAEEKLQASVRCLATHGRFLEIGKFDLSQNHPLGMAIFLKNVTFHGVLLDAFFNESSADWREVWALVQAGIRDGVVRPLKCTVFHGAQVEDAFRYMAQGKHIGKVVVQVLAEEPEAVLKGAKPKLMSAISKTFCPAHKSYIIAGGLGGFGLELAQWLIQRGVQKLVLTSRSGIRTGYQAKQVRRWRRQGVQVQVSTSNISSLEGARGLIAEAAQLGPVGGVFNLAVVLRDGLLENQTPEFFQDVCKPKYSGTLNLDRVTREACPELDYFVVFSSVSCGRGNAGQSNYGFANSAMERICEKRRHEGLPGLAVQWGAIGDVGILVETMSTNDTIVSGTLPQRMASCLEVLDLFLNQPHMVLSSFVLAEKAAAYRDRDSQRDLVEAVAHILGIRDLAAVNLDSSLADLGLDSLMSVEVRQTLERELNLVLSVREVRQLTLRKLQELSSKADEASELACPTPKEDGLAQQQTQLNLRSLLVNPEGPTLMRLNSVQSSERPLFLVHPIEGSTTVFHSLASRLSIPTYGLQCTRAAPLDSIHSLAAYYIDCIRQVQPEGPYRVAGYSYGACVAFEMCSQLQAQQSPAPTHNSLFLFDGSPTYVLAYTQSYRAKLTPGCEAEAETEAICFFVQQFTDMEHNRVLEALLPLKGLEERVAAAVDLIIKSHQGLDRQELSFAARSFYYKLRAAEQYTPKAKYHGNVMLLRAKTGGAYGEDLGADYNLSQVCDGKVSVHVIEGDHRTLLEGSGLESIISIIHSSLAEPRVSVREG
Sequence of Luciferin 4-monooxygenase (P08659 whole entry): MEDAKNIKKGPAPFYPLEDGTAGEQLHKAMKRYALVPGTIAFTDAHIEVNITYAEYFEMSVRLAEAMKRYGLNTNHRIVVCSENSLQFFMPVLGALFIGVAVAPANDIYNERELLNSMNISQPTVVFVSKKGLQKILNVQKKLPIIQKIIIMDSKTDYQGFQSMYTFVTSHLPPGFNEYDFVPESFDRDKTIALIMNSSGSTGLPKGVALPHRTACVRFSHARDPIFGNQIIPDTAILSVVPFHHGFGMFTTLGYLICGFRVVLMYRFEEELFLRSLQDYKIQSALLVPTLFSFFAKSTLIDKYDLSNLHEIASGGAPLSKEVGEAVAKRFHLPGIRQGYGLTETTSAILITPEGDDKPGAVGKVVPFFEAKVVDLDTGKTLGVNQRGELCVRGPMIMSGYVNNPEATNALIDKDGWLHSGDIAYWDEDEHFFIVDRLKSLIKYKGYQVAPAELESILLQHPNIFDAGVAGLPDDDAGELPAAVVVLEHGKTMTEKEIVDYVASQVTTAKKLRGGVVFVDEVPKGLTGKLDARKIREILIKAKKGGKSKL

For `CN(Cc1ccc(C(C)(C)C)cc1)C(=O)Cc1ccc(S(=O)(=O)N2CCOCC2)s1`, the IC50 at Fatty acid synthase [1] was 0.291 µM (active); at Fatty acid synthase [2] it was 0.424 µM (active).

For `CCCN1C(=O)SC(CC(=O)Nc2ccc(C)cc2)C1=O` (stereo not drawn), the IC50 in assay [3] and in assay [4] was > 66 µM (inactive) each time.

Regarding `Cc1ccc(-n2[nH]c(=O)c(-c3ccccn3)c2C)cc1`, the EC50 (as a rule, the concentration giving half of the maximal effect) was 2 µM (active) in [5] and 0.571 µM (active) in [6]. Further, the AC50 (usually the midpoint of the concentration-response curve, whichever way the signal moves) in [7] was > 52 µM (inactive); in [8] it was 1.61 µM (active); in assay [9], 3.23 µM (active); in assay [10] it was 2.08 µM (active).

As to `CCNCCC(CCC(C)C)c1ccc2c(c1)OCO2` (stereo not drawn), the AC50 in [11] is > 20 µM (inactive).

Take `O=C(Nc1nnc(C2CC2)s1)c1ccccn1`: the AC50 in assay [7] was 7.92 µM (active); in [8], 18.3 µM (active); in [12], 8.23 µM (active); in assay [10] it was 17.1 µM (active); in assay [13], 19 µM (active).

Take `CC1=C(C(=O)O)N2C(=O)C(NC(=O)c3ccc(F)cc3)C2SC1` (stereo not drawn): the IC50 in assay [3] and in [4] was > 66 µM (inactive) in each case.

`CN1CCN(CC(=O)Nc2sc3c(c2C#N)CCC(C(C)(C)C)C3)CC1` (stereo not drawn): the EC50 in [14] and in [15] was > 20 µM (not active) in each case.

In the case of `CCN(CC)CCCNc1cc(C)c(C#N)c2nc3ccccc3n12`, the AC50 in [11] was > 20 µM (inactive).

Turning to `COc1cccc(-n2c(=S)sc3c(=O)n(-c4ccccc4OC)c(=S)[nH]c32)c1`, the IC50 in [3] and in assay [4] was > 66 µM (inactive) throughout.

For `O=C(Nc1cccc(Cl)c1)c1cc([N+](=O)[O-])ccc1N1CCN(CCO)CC1`, the IC50 at Fatty acid synthase [1] is 2.72 µM (active); on Fatty acid synthase [2], 6.61 µM (active).

Consider `COc1ccc(/C=C(\NC(=O)c2ccc([N+](=O)[O-])cc2)C(=O)NCCCN2CCOCC2)cc1`, for which the IC50 at Fatty acid synthase [1] was 2.95 µM (active); on Fatty acid synthase [2], 4.51 µM (active).

`COc1ccc(N2CCN(C(=O)CSc3ccc([N+](=O)[O-])cc3)CC2)cc1`: the IC50 on Fatty acid synthase [1] is 12.9 µM (active); on Fatty acid synthase [2], 21.1 µM (inactive).

Consider `c1ccc(-c2nc(NCc3cccnc3)c3oc4ccccc4c3n2)cc1`, for which, in assay [16], the CC50 – broadly, the concentration at which the toxic effect on the cells reaches its halfway point – was 28.9 µM (active). Moreover, the EC50 in assay [17] was 2.22 µM (active); in [14] it was 14.2 µM (active); in assay [15], 15.8 µM (active); in assay [18] it was > 60 µM (not active); in [19] it was > 260 µM (inactive).

With `CC(C)(CCC(=S)N1CCOCC1)C1CCCCC1`, the IC50 in assay [3] and in assay [4] was > 66 µM (inactive) throughout.

`COc1cc(C(=O)COC(=O)c2cc([N+](=O)[O-])ccc2N2CCOCC2)ccc1OC(F)F`: the IC50 on Fatty acid synthase [1] is 10.1 µM (active); on Fatty acid synthase [2] it was 10.3 µM (active).

As for `COc1ccc(C(=O)Nc2ccc3ccccc3c2)cc1`, the EC50 was 6.82 µM (active) in assay [5], 10.4 µM (inconclusive) in [6] and 9.12 µM (inconclusive) in assay [20]. The AC50 in assay [8] was 5.78 µM (active); in [12], 45.6 µM (active); in assay [10], 8.43 µM (active).

For the compound `Cc1nc(NCc2ccco2)c(C#N)c2c1COC(C)(C)C2`, the IC50 in assay [21] is given as 37.5 µM (not active).

`CC(=O)c1c2c3c(c(Br)ccc3n(C)c1=O)C(=O)c1ccccc1-2`: the IC50 is 45.8 µM (inactive) in assay [3] and 37.5 µM (inactive) in assay [4]. Besides, the EC50 in [22] and in [23] was > 112 µM (not active) throughout.

In the case of `CC(=O)c1ccc(OCCCC(=O)NC2=NCCS2)cc1`, the IC50 in assay [3] and in assay [4] was > 66 µM (inactive) in each case.

Regarding `CCOC(=O)c1cnc2ccc(Cl)cc2c1N1CCN(C)CC1`, in assay [21], the IC50 is recorded as 25.9 µM (not active).
